Experimental data from US20260021107A1, “STIMULATOR OF INTERFERON GENES AGONISTS” (INIMMUNE CORP., priority 2022, published 2026).

Assays:
[1] = test system: THF-ISRE cells; experiment: THF luciferase activity, primary (initial) screen in THF-ISRE cells; assay type: cell-based, human; conditions: inducible luciferase reporter signalling upon IRF3 activation, compounds 50 μM to 0.391 μM, 18 hours, luminescence
Description: (§1) STING molecules were screened to determine human STING pathway specificity. THF-ISRE, THF-ISRE STING knock-out (KO), and THF-ISRE TRIF/MAVS KO cell lines contain an inducible luciferase reporter construct that will signal upon IRF3 activation. THF-ISRE STING KO cell line only has the TRIF/MAVS pathway to activate IRF3. THF-ISRE TRIF/MAVS KO cell line uses only the STING pathway for IRF3 activation. Luciferase activity was determined by measuring luminescence.
(§2) The three cell lines were maintained in T-75 flasks with DMEM/High Glucose (Cytiva™, Logan, UT), Pen/Strep/Glutamine (Hyclone™, Logan, UT), and 10% heat inactivated FBS (Hyclone™, Logan, UT).
(§3) For primary screening, THF-ISRE cells were plated at a density of 15,000 cells/well in opaque flat bottom 96-well tissue culture plates. Cells incubated for 36 hours and treated with DMSO (Sigma™, St. Louis, MO) formulated compounds. Before treatment, cell media was changed to 2% FBS in DMEM with antibiotics. Compounds were serially diluted 2-fold, starting at 50 μM and ending at 0.391 μM. Luciferase activity was measured after 18 hours by addition of Steady-Glo Luciferase Assay System (Promega™, Madison, WI) at a 1:1 ratio and luminescence read by plate reader.

[2] = test system: human STING pathway; experiment: THF luciferase activity, secondary screen in THF-ISRE TRIF/MAVS KO cells (STING only); assay type: cell-based; conditions: only the STING pathway for IRF3 activation
Description: as §1, §2, §3
The secondary screening used the same procedure as above with THF-ISRE STING KO and THF-ISRE TRIF/MAVS KO cells. If the compound was human STING specific, only THF-ISRE TRIF/MAVS KO cells would have luciferase activity.

SMILES | luciferase activity (initial screen) [1] | luciferase activity in TRIF/MAVS KO cells (STING pathway use) [2]
CC1Sc2cc(C(=O)NCc3c(F)cc(F)cc3F)ccc2N(Cc2c(O)cccc2F)C1=O (centres unmarked) [INI-3071] | positive luciferase activity | use the STING pathway for luciferase activity
COc1cccc(F)c1CN1C(=O)CSc2cc(C(=O)NCc3c(F)cc(F)cc3F)ccc21 [INI-3067] | positive luciferase activity | use the STING pathway for luciferase activity
O=C(NCc1c(F)cc(F)cc1F)c1ccc2c(c1)SCC(=O)N2Cc1c(O)cccc1F [INI-3069] | positive luciferase activity | use the STING pathway for luciferase activity
CC1Sc2cc(C(=O)NCc3ccco3)ccc2N(Cc2c(O)cccc2F)C1=O (centres unmarked) [INI-3070] | positive luciferase activity | use the STING pathway for luciferase activity
